Reference: patent US20240207361A1, “ERYTHROPOIETIN-DERIVED PEPTIDES FOR TREATING RELAPSING-REMITTING MULTIPLE SCLEROSIS” (The United States Government as represented by the …, priority 2021, published 2024)
Entries after “also recorded” stand apart in the source; their conditions may differ.

Assays:
[1] = symptomatic EAE mice, literature; cited from earlier work
[2] = system: EAE mice; conditions: cited from earlier work
[3] = system: GFAP-luc; test: GFAP-luc bioluminescence imaging (BLI) in MOG-induced EAE; format: in vivo, mouse
Method: (§1) Bioluminescence Imaging (BLI). Bioluminescent signals were quantified using the In Vivo Imaging System 100 (IVIS: Xenogen, Alameda, CA) with a cold Charged Coupled Device (CCD) camera mounted in a dark box. Three animals were imaged simultaneously. Mice received an IV injection of 1 mg/kg D-luciferin (Xenogen) 2-3 minutes prior to imaging and were immediately anesthetized with vaporized isoflurane for imaging. The imaging signal was quantified in units of photons per second per centimeter squared per steradian (photons/s·cm2/sr) using […] Version 3.1 (Xenogen) software and integrated over 2 minutes. For signal quantification, photons were obtained from a “region of interest” (ROI) that covered 2.18 cm2 of contiguous forebrain and 5.27 cm2 of spinal cord region. Bioluminescence was expressed as a ratio of the total photons value from the central nervous system ROI to the photon value obtained from an equal sized area over the left ear, used as an endogenous control. In the acute EAE model, measurements were typically taken every 1-2 days and the average of 2 consecutive days readings were used. Bioluminescence imaging was performed every other day after disease onset and twice weekly during the later chronic phase of the illness.
(§2) JM4 treatment. The JM4 peptide was first dissolved in distilled water to 2 mg/ml and stored at −80° C. Immediately before use, the peptide solution was further diluted to 5 μg/200 μl with PBS. […] The EAE mice were randomly divided into a JM4 treated and a sham treated group. The JM4 treated EAE animals (4-10 per group) were treated daily with IV JM4 250 μg/kg of the peptide in PBS for 10-12 days. Control EAE animals were sham-treated with IV saline for the same time period. To evaluate the treatment effects, mice underwent BLI examination as well as clinical and histopathologic evaluation.
(§3) Statistical analysis. Data is presented as the mean±SEM. Two tailed t-tests were used to compare JM4 effects on BLI and clinical scores. The long-term effects of JM4 were studied in the relapsing EAE model by using each subject's average clinical score from day 60 onward. Bioluminescence was measured by the number of days where luminescence intensity in the spinal cord exceeded a threshold of 0.5 relative to the left ear. Survival data was examined using a two-tailed log-rank test. Values of p<0.05 were considered significant.

[4] = system: GFAP-luc; test: GFAP-luc bioluminescence imaging flare-ups in PLP-induced relapsing-remitting EAE; format: in vivo, mouse; conditions: for number of imaging flare ups / GFAP-luc expression compared to sham treated: relapsing-remitting EAE, brain or spinal cord
Method: as §1, §2, §3

[5] = system: MOG-induced EAE GFAP-Luc/C57 mice; test: Clinical neurologic scoring in MOG-induced monophasic EAE; format: in vivo, mouse; conditions: for clinical score compared to sham treated: 5 μg IV daily for 12 days from day 9, n=8 per group
Text: (§4) Methods. Animals. Male FVB/N-Tg (GFAP-luc+/−) mice (Xenogen Corp, Alameda, CA) were crossed with either albino C57BL/6J-Tyrc-2j or SJL/J mice purchased from Charles River Laboratories (Wilmington, MA). The FI offspring were genotyped by PCR following the manufacturer's protocol. Female mice between 8-10 weeks of age positive for GFAP (GFAP-luc/C57 or GFAP-Luc/SJL) expression were used.
Induction of EAE and clinical assessment of animals. Active EAE was induced according to a standard protocol (Smith M, et al. Brain Research 1983:264:241-53). Mice were immunized on Day 0 by subcutaneous injection on both sides of the tail base with 100 μL of an emulsion composed of either PLP139-151 or MOG35-55 peptide in an equal volume of Freund's adjuvant, supplemented with 4 mg/mL killed M. tuberculosis H37Ra (Difco Laboratories, Detroit, MI). The initial dose of antigen was 100 μg of PLP peptide for inducing relapsing EAE in SJL/J mice, or 200 μg of MOG peptide per C57BL/6 mouse for induction of acute monophasic EAE. GFAP-Luc/SJL/J mice received a second PLP antigen immunization on Day 7. Immediately following these immunizations, mice received intravenous (IV) injections of 200 ng Bordetella pertussis toxin diluted in 200 μL phosphate buffered saline (PBS) (List Biological Laboratories, Campbell, CA). […] Animals were weighed and assessed daily for clinical signs of EAE by two blinded independent observers during the acute phase of illness, and followed three times a week during the later chronic phase. The monophasic EAE MOG C57BL6 model was monitored for 28-30 days and the PLP SJL/J relapsing model was followed for nearly 6 months after immunization. The clinical scoring system used to quantify behavioral neurological deficits in the EAE mouse models (Table 2) was previously described (Aquino D, et al. Journal of Neurochemistry 1990:54:1398-404). […]
Statistical analysis. […] Bioluminescence was measured by the number of days where luminescence intensity in the spinal cord exceeded a threshold of 0.5 relative to the left ear. […]

[6] = system: SJL/J relapsing-remitting EAE mice; test: Spinal cord histopathology (Luxol fast blue, SMI-32, mouse IgG) in SJL/J relapsing-remitting EAE; format: in vivo
Text: Histopathology. To assess CNS inflammation and demyelination at different time points after immunization, EAE mice in the JM4 peptide-treated and sham-treated groups were anesthetized and perfused with ice-cold PBS, followed by 4% paraformaldehyde into the left ventricle. Spinal cords and brain were removed. Tissues were then embedded in paraffin, sectioned and stained with Luxol-Fast Blue/PAS to determine the extent of demyelination. Five-micron paraffin sections from the high cervical, thoracic and low lumbosacral region of the spinal cord were placed on the same slide. Each slide contained a control normal spinal cord section, a sham-treated EAE cord, and spinal cord sections from JM4 treated EAE animals. Histopathologic examination was performed in blinded fashion. In addition, SMI-32 anti-neurofilament H immunohistochemical staining was completed to assess acute axonal injury (Aquino D, et al. Journal of Neurochemistry 1990:54:1398-404). In brief, 5 μm sections were de-paraffinized, treated with antigen-retrieving solution, and blocked with normal horse serum to minimize nonspecific binding. The sections were first incubated with mouse SMI-32 antibody (Sternberger Monoclonals, Lutherville, MD) diluted 1:5,000 in PBS overnight at 4° C. After two 5-minute PBS washes, the sections were incubated with biotinylated horse anti-mouse IgG (Vector Labs, Burlingame, CA), and then by horseradish peroxidase (HRP)-avidin complex (Vector Labs) for 30 minutes each. Immunostaining was visualized by reacting the sections with diaminobenzidine tetrahydrochloride (Stable DAB: Invitrogen) for 1 to 3 minutes. Excess DAB was removed by washing with distilled water and the slides were evaluated using light microscopy.

[7] = Hematopoietic and other side effects; conditions: acute MOG and relapsing-remitting PLP SJL/J EAE models
[8] = system: complement component C3; test: C3/GFAP immunohistochemistry for A1 astrocyte activation in spinal cord of MOG EAE mice; format: in vivo, mouse
Method: Spinal cord (cut into 6-7 equal pieces from cervical to sacral) was frozen and serially cut at 8 μm-thick cross sections and collected on slides, then post-fixed in acetone at −20° C. for 10 min. Sections were first treated with Target Unmasking Fluid (Pan Path) at 90° C. for 10 min, and blocked in 2% normal horse serum for 10 min. Sections were incubated overnight at 4° C. with either monoclonal rat anti-mouse C3 complement (Abcam, AB11862) at 1:50 or polyclonal rabbit anti-mouse GFAP (Dako Z0334GFAP) at 1:500. The next day sections were washed in PBS three times for 10 min each and incubated with cy3 or cy2 conjugated goat anti-mouse/rat/rabbit IgG (Jackson ImmunResearch) at 1:120 working dilution for 1 hour. Sections were washed in dH2O three times for 10 min each, followed by fluorescence microscopy imaging.
Immunohistochemistry images were obtained using an Olympus BX41 fluorescent microscope (Center Valley, PA, USA) fitted with ProgRes MF cool digital camera using 4× or 10× objectives. Half of each section from different spinal levels was quantified by measuring the percent area in the structure where label exceeded a constant threshold value using Image Pro 4.0 image analysis software (BD Biosciences, Franklin Lakes, NJ).
as §3

[9] = system: PLP-induced relapsing-remitting EAE GFAP-Luc/SJL mice; test: Clinical scoring, relapse and survival in PLP-induced relapsing-remitting EAE; format: in vivo, mouse; conditions: for long term clinical scores compared to sham treated: for over five months, n=4 JM-4, n=5 sham, p<0.05 at day 60 onward
Text: as §4
Induction of EAE and clinical assessment of animals. […] Mice were immunized on Day 0 by subcutaneous injection on both sides of the tail base with 100 μL of an emulsion composed of either PLP139-151 or MOG35-55 peptide in an equal volume of Freund's adjuvant, supplemented with 4 mg/mL killed M. tuberculosis H37Ra (Difco Laboratories, Detroit, MI). The initial dose of antigen was 100 μg of PLP peptide for inducing relapsing EAE in SJL/J mice, or 200 μg of MOG peptide per C57BL/6 mouse for induction of acute monophasic EAE. GFAP-Luc/SJL/J mice received a second PLP antigen immunization on Day 7. Immediately following these immunizations, mice received intravenous (IV) injections of 200 ng Bordetella pertussis toxin diluted in 200 μL phosphate buffered saline (PBS) (List Biological Laboratories, Campbell, CA). The GFAP-Luc/C57BL mice received an additional IV injection of 200 ng Bordetella pertussis toxin on post-inoculation Day 2. Animals were weighed and assessed daily for clinical signs of EAE by two blinded independent observers during the acute phase of illness, and followed three times a week during the later chronic phase. The monophasic EAE MOG C57BL6 model was monitored for 28-30 days and the PLP SJL/J relapsing model was followed for nearly 6 months after immunization. The clinical scoring system used to quantify behavioral neurological deficits in the EAE mouse models (Table 2) was previously described (Aquino D, et al. Journal of Neurochemistry 1990:54:1398-404).
Immediately before use, the peptide solution was further diluted to 5 μg/200 μl with PBS. […] Control EAE animals were sham-treated with IV saline for the same time period. To evaluate the treatment effects, mice underwent BLI examination as well as clinical and histopathologic evaluation.
Statistical analysis. Data is presented as the mean±SEM. […] Bioluminescence was measured by the number of days where luminescence intensity in the spinal cord exceeded a threshold of 0.5 relative to the left ear. Survival data was examined using a two-tailed log-rank test. Values of p<0.05 were considered significant.

GCAEHCSLNENITVPDTKV [JM-4]
erythropoietic activity [1]: without the activities responsible for excessive erythropoiesis
decrease of dendritic cells ([2]; EAE mice): ten-fold
mononuclear cells count ([2]; EAE mice): reduced elevated mononuclear cells count to normal
proinflammatory cytokines including IL-2, IL-6, TNF-alpha and INF-gamma ([2]; EAE mice): decreased proinflammatory cytokines
T helper Th 17 positive cells ([2]; SJL/J EAE mice): reduce T helper Th 17 positive cells
Treg cells ([2]; SJL/J EAE mice): expand Treg cells
tissue protective properties ([2]; symptomatic EAE mice, literature): robust EPO-like tissue protective properties
peak bioluminescent values in forebrain and spinal cord compared to sham treated ([3]; 5 μg IV daily for 12 days from day 9, n=8, p<0.05): significantly lower
spinal cord bioluminescence signal after start of treatment, single imaged animal ([3]; FIG. 3A, treatment started day 9): virtual absence of spinal cord signal by day 4
GFAP-luc signal returned to baseline earlier than sham-treated group ([3]; MOG EAE): 3 to 4 days
reduction of bioluminescence from peak disease scores compared with sham animals ([3]; at days 11 to 12): 3-4 fold
number of spinal cord bioluminescence flare ups (mean+/−SEM) ([4]; 5 μg IV daily for 12 days, n=8 JM-4, n=7 sham, sham 10.29+/−2.447, p<0.05): 4.0+/−1.018
average daily intensity of the bioluminescent signal versus sham-treated ([4]; chronic remitting-relapsing EAE): not significantly different
number of imaging flare ups / GFAP-luc expression compared to sham treated [4]: substantially less; also recorded: significantly decreased
number of imaging flare ups / GFAP-luc expression compared to sham treated ([4]; listed as JM4): significantly decreased
clinical score compared to sham treated [5]: significantly lower
clinical score compared to sham treated ([5]; listed as JM4): significant reduction in clinical score
maximum mean clinical score ([5]; JM4 250 μg/kg IV for 12 days starting day 9 post-immunization, score scale 0-6 (Table 2), sham 3.7±0.4, p<0.05): 2.25±0.3
spinal cord demyelination and axonal injury ([6]; Luxol fast blue, ventral white matter): protective against spinal cord demyelination and axonal injury
number of injured axons (SMI-32) rimming the ventral spinal cord versus sham ([6]; mouse, in vivo): large reduction in number of injured axons
IgG immunoreactivity in spinal cord (blood-brain barrier breakdown) ([6]; versus saline treated EAE): profoundly reduced
hematogenic side effects [7]: without the negative hematogenic side effects
C3 expression in spinal cord ([8]; 24 days post immunization, JM4 250 μg/kg IV 12 days from day 9, n=7 per group, EAE 17.5+/−3.7, p<0.05): 8.3+/−1.9
attenuation of A1 astrocyte activation ([8]; EAE mice): over 50%
C3 / A1 astrocyte immunoreactivity versus untreated EAE ([8]; spinal cord): massive reduction of C3 positive A1 astrocytes; also recorded: significant decrease in C3 immunoreactivity
clinical deficit improved earlier than sham-treated animals ([9]; acute phase of the disease): 7 days
survival ([9]; at 100 days, Kaplan-Meier, sham 50%): 100%
average clinical score ([9]; for 130 days, 12-day course IV 5 μg/day from day 9, sham around 2): under 1
long term clinical scores compared to sham treated [9]: remarkably reduced
long term clinical scores compared to sham treated ([9]; listed as JM4): significantly lower
animals remaining relapse-free by clinical scoring ([9]; throughout the 5-month experiment, sham 20%): 50%
